Data on 3 molecules can be found in patent publication US12630604B2, “Methods of making chimeric antigen receptor-expressing cells” (Novartis AG, priority 2018, dated 2026).

“Also recorded” adds a separate entry of the source.

Holding throughout (type): cell-based
The subject of experiment [1] is T cells. The experiment in a line: ARM-BCMA CAR expression kinetics in vitro with or without AZT (FACS). As to conditions: 30 μM and 100 μM doses. The protocol:
In contrast to TM which measures lentiviral integration of the CAR transgene after 8-9 days, in the ARM process, the lentiviral transgene may not be fully integrated and truly expressed within 24 h post lentiviral addition, as lentiviral pseudotransduction could occur (Haas D L, et al., (2000) Mol Ther; 2(1):71-80; Galla M, et al., (2004) Mol Cell; 16(2):309-15). Therefore, the BCMA-CAR expression pattern was evaluated over time by extended culturing of ARM-BCMA CAR in vitro in the presence or absence of 3′-azido-3′-deoxythymidine (AZT) to evaluate the potential pseudotransduction versus stable integration and expression of the CAR transgene. Flow cytometry (FACS) analyses were performed to detect CAR surface expression at 24 h, 48 h, 72 h, 96 h and 168 h post T cell activation and transduction with the lentiviral vector. In some cases, ARM-BCMA CAR and an aliquot of this product were frozen down immediately upon harvest for additional characterization in other assays.

In a further experiment the test system is IL6Rβ expressing cells. Nature of the experiment: Cell surface staining (IL6Rα/IL6Rβ and differentiation markers). As to conditions: after TCR engagement. The text has this: Cells were harvested at indicated time points and then stained with live/dead dye (eFluro780, eBioscience), CD3 (BioLegend, clone #: OKT3), CD4 (BioLegend, clone #: OKT4), CD8 (BD Bioscience, clone #: RPA-T8), CD45RO (BioLegend, clone #: UCHL1), CCR7 (BioLegend, clone #: G043H7), CD27 (BD Horizon, clone #: L128), CD127 (BioLegend, clone #: A019D5), CD57 (BioLegend, clone #: HCD57), CD126 (BioLegend, clone #: UV4), and CD130 (R&D Systems, clone #: 28126) antibodies. The cells were acquired by FACS Fortessa and then FlowJo program was used for data analysis.

The test system of experiment [2] is T cells. Nature of the experiment: T cell culture with cytokines after αCD3/αCD28 bead activation (expansion, size, viability). Conditions: for T cell expansion: T cells activated with αCD3αCD28 beads at day 0 in presence of cytokine; for cell size and viability: after TCR engagement. How it is done: Previously frozen T cells were thawed and contacted with αCD3/αCD28 dynal beads (cell to bead ratio of 1 to 3) in the presence of indicated cytokines at day 0. From day 3, twice more T cell growth media (RPMI1640, 10% FBS, 2 mM L-glutamin, 100 μM non-essential amino acids, 1 mM sodium pyruvate, 10 mM Hepes, 55 μM β-mercaptoethanol, 10% FBS, and 100 U/ml of penicillin-streptomycin) was added to the plate with indicated cytokines (without cytokine, rhIL2 (501 U/ml, Novartis), IL6 (10 ng/ml, R&D systems), IL7 (10 ng/ml, Peprotech), IL15 (10 ng/ml, Peprotech), and IL21 (10 ng/ml, Peprotech)) at day 3, 5, 6, 9, 12, 15, and 18.

Experiment [3] concerns T cells. The experiment in a line: T cell differentiation status by flow cytometry (CCR7/CD45RO), cytokine process. Conditions: purified T cells cultured with cytokine 24 hours, no CD3/CD28 stimulation. The protocol:
The cells were immunophenotyped for T cell differentiation status and transduction of the CAR was assessed using flow cytometry. The cells were washed, viability dye was added followed by the antibody cocktail (Table 20), and the plates were incubated for 20 minutes at room temperature. After the incubation, the cells were washed twice and fixed prior to being analyzed on the BD fortessa.
In general terms: Flow cytometry measures light scatter and fluorescence of single cells or particles in a stream.

`Cc1cn([C@H]2C[C@H](N=[N+]=[N-])[C@@H](CO)O2)c(=O)[nH]c1=O` [AZT, 3′-azido-3′-deoxythymidine]: the “inhibition of CAR expression” value in the experiment with T cells [1] is “effectively inhibit CAR expression”.

IL-15: cytokine: the “expansion of IL6Rβ expressing cells” value in the experiment on IL6Rβ expressing cells is listed as “enhanced expansion of IL6Rβ expressing cells”. For the same molecule, in the experiment on T cells [2], the T cell expansion entry was “enhanced T cell expansion; also recorded: the greatest enhancement”; the “cell size and viability” value is “did not affect cell size and viability”. Also, in the experiment with T cells [3], the “maintenance of self-renewing / naïve T cells (CD45RO−CCR7+)” value was “maintained self-renewing T cells in vitro”.

B1: IL7: cytokine (protein, UniProt P13232 26-177, looked up)
Interleukin-7: DCDIEGKDGKQYESVLMVSIDQLLDSMKEIGSNCLNNEFNFFKRHICDANKEGMFLFRAARKLRQFLKMNSTGDFDLHLLKVSEGTTILLNCTGQVKGRKPAALGEAQPTKSLEENKSLKEQKKLNDLCFLKRLLQEIKTCWNKILMGTKEH
On to B1, for which, in the experiment on T cells [2], the T cell expansion result was “enhanced T cell expansion”; the “cell size and viability” value was “did not affect cell size and viability”.
